Numbering of substitutions follows the chain as printed. Where two headings read alike, the source gives them in different places. Where a SMILES comes first, the peptide text is derived from it.
Tests used:
[1] = test system: TMPRSS2-ERG fusion transcript in LNCaP cells; conditions: DHT 10 nM, 12 hours
Protocol: It was investigated whether stimulation with androgen (e.g. DHT) could create gene fusions by coupling androgen stimulation with an agent that causes DNA double strand breaks. LNCaP cells were hormone depleted, followed by stimulation with DHT (10 nM, 12 hours), irradiation (1 or 3 Gy) and clonal expansion of single cells in 96 well plates using flow sorting. The presence of the TMPRSS2-ERG fusion transcript was determined using quantitative reverse-transcription PCR (QRT-PCR) with both SYBR green and TaqMan assays spanning the chimeric region.

[2] = test system: TMPRSS2 and ERG loci in LNCaP cells
[3] = test system: TMPRSS2 and ERG loci in DU145 cells
[4] = target: T1, ETS domain stretch RALRYYYDK (Arg367 to Lys375 in ERG), R367→K (Homo sapiens, UniProt P11308, R367K); format: binding
T1 construct: used a series of overlapping 19 amino acids segments of ETS domain; made in house
T1 sequence (P11308 311-391 R367K): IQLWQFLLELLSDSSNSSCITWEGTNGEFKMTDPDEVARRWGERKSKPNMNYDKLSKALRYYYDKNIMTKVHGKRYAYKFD
Source text: Interactive phage clones were sequenced and analyzed using bioinformatics approaches to identify consensus peptide sequence. […] The domains within ERG that mediate the binding of isolated phage clones were mapped using a panel of ERG deletion mutants expressed as HaloTag fusion protein. A total of 6 domains, namely N-term, ETS, CAE, PNT, CD, and CTD (Carrere et al., Oncogene, 1998. 16(25): p. 3261-8), were cloned and expressed in TNT SP6 wheat germ system. Without purification, the expression reactions were coated on HaloLink Array system and incubated with individual phage clones. The interaction signal was detected by Cy3-labled anti-M13 antibody, which is specifically directed against the phage capsid protein (FIG. 28). […] Further mapping studies used a series of overlapping 19 amino acids segments of ETS domain specifically localized the binding site to a 9 amino-acids conserved stretch […] (SEQ ID NO. 1) corresponding to the residues Arg^367 to Lys^375 in ERG (FIG. 29). The conserved region of the amino acids specifically involved in peptide binding was then located.

[5] = test system: RWPE-1 cells transduced with ERG adenovirus; experiment: ERG-mediated invasion of RWPE-1 cells transduced with ERG adenovirus; format: cell-based; conditions: TAT-tagged peptides, 2 μM, 48 hours, RWPE-1 with ERG adenovirus
Protocol: (§1) Invaded cells were stained with crystal violet and photographed.
To investigate the ability of ERG-binding peptides to block ERG-mediated invasion, the prostate cell lines RWPE-1 transduced with ERG or LACZ adenovirus were incubated with TAT-tagged peptides. […] The relative number of invaded cells was also quantified by colorimetric assays.

[6] = test system: VCaP
Protocol: (§2) Briefly, equal numbers of the indicated cells were seeded onto the basement membrane matrix (EC matrix, Chemicon) present in the insert of a 24-well culture plate, with fetal bovine serum added to the lower chamber as a chemoattractant. After 48 h, non-invading cells and the EC matrix were removed by a cotton swab. Invaded cells were stained with crystal violet and photographed. The inserts were treated with 10% acetic acid and absorbance was measured at 560 nm.

[7] = test system: VCaP; experiment: Cell invasion with TAT-peptides, VCaP; conditions: FIG. 39
Protocol: as §2

[8] = target: T2, ERG (Homo sapiens, UniProt P11308)
T2 sequence (P11308 1-479): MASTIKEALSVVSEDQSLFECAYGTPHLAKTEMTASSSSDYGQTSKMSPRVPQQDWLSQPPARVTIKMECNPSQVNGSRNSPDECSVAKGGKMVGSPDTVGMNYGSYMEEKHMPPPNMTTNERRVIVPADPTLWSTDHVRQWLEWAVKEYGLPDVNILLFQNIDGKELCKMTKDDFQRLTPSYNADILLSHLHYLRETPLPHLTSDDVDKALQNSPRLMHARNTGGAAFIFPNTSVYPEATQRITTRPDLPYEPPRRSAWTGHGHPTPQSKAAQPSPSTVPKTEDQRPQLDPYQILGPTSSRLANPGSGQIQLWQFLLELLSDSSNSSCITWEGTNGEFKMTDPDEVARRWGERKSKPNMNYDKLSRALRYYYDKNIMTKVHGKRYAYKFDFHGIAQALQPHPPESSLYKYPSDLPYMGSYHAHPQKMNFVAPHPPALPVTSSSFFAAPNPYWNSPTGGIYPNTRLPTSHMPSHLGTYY

[9] = test system: DU145; experiment: Cell invasion with TAT-peptides, DU145; format: cell-based; conditions: FIG. 39
Source text: as §1

[10] = target: T3, AR binding to ETS domain (Homo sapiens, UniProt P11308)
T3 sequence (P11308 311-391 limits assumed): T1 sequence (P11308 311-391 R367K) with K57R
Protocol: Beads were eluted by SDS loading buffer and blotted with anti-GST mAb specifically against GST-AR (FIG. 30).
The cDNAs and fragments are cloned into pFN19A vector per manufacturer's protocol. In vitro translated proteins are generated by a wheat germ expression system (Promega) and immobilized onto HaloLink magnetic beads. After washing, the conjugated beads are incubated with GST-AR fusion proteins in the presence or absence of peptides. The bound proteins are analyzed by SDS-PAGE and blotted with anti-GST mAb (Sigma).

[11] = test system: VCaP; experiment: Cell proliferation with TAT-peptide, VCaP; format: cell-based; conditions: FIG. 40
Source text: Standard cell proliferation and apoptosis assays (Chinnaiyan et al., Cell, 1995. 81(4): p. 505-12; Chinnaiyan et al., Proc Natl Acad Sci USA, 2000. 97(4): p. 1754-9; Varambally et al., Nature, 2002. 419(6907): p. 624-9) are used to assess the inhibitory role of peptides in prostate cell proliferation driven by TMPRSS2:ETS fusions, using both the over-expression series and stable-knockdown series.

[12] = test system: VCaP; experiment: DNA damage in VCaP with TAT peptides; format: cell-based; conditions: FIG. 42
[13] = test system: TMPRSS2-ERG and wild-type ERG transcripts; format: cell-based
Protocol: All PCR experiments were performed in triplicates.

`C[C@]12CCC(=O)C[C@@H]1CC[C@@H]1[C@@H]2CC[C@]2(C)[C@@H](O)CC[C@@H]12` [DHT, Dihydrotestosterone] was tested, and the “clones harboring TMPRSS2-ERG fusion transcripts” value ([1]; then 1 Gy irradiation) was 2.3%, the “clones harboring TMPRSS2-ERG fusion transcripts” value ([1]; then 3 Gy irradiation) was 25% and the “proximity between the TMPRSS2 and ERG loci” value [2] was “induced proximity”. For the same molecule, the “proximity between TMPRSS2 and ERG” value [3] was “not observed”.

With `CC(C)C[C@H](NC(=O)[C@H](CO)NC(=O)CNC(=O)[C@H](Cc1ccccc1)NC(=O)[C@H](CO)NC(=O)[C@@H](N)CC(C)C)C(=O)N1CCC[C@H]1C(=O)O` [LSFGSLP] (H-LSFGSLP-OH) the “phage peptide binding after single amino acid substitution R367→K” value [4] was “completely abolished”.

LPPYLFT was tested, and the ERG-driven invasion [5] was “blocked”.

In the case of “TAT-LPPYLFT: TAT linked to LPPYLFT (SEQ ID NO: 45) (not fully specified; left off: small tags and cut ends)”, the “cell invasion driven by ERG” value [6] is reported as “attenuated”, the VCaP invasion [7] is reported as “inhibit” and the ERG transcription activities [8] is reported as “blocked”. The DU145 invasion [9] was “not”, the “ERG interactome (through ETS domain)” value [10] was “blocked” and the VCaP proliferation [11] was “inhibited”.

For “TAT-LSFGSLP: TAT linked to LSFGSLP (SEQ ID NO: 2) (not fully specified; left off: small tags and cut ends)”, the “cell invasion driven by ERG” value [6] was “attenuated”, the VCaP invasion [7] was “inhibit” and the ERG transcription activities [8] was “blocked”. For the same molecule, the DU145 invasion [9] was “not”, the “ERG interactome (through ETS domain)” value [10] was “blocked” and the “DNA damage in VCaP” value [12] was “inhibit”. For the same molecule, the VCaP proliferation [11] was “inhibits”.

“UGG UCA GAG AGA AGC AAU A [wild-type ERG siRNA]” was tested, and the TMPRSS2-ERG expression [13] was “did not affect”.
